Measurements taken from patent publication US12479827B2, “Heteroaromatic carboxamide derivatives as plasma kallikrein inhibitors” (Boehringer Ingelheim International GmbH, priority 2020, dated 2025).
pIC50: −log10 of the molar value.

Key:
Human PKK = biological target: T1, Human PKK (Homo sapiens, UniProt P03952); experiment: Inhibition of PKK using an endpoint assay (human PKK); assay type: biochemical; details: fluorogenic substrate H-Pro-Phe-Arg-AMC, 1 h room temperature, method names human or rat PKK, table does not say which
T1 construct: purchased Enzyme Research Laboratories
T1 sequence (P03952 20-390 limits assumed): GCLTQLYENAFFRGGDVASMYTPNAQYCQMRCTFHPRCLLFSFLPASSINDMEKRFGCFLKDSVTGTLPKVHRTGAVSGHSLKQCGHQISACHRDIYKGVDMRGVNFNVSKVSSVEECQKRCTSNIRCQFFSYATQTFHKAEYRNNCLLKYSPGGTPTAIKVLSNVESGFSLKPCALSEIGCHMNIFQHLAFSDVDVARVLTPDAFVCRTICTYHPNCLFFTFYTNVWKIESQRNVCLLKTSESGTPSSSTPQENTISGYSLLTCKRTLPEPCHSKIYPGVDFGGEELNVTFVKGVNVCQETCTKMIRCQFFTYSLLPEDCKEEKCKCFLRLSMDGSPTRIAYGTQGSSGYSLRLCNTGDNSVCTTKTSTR
T1 sequence (P03952 391-638 limits assumed): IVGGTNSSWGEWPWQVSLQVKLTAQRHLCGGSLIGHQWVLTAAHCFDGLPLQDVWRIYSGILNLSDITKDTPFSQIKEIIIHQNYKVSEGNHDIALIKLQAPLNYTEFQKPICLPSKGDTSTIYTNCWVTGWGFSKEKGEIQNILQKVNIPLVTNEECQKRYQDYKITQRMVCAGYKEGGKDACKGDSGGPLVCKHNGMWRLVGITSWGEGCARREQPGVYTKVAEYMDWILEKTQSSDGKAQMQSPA
Outline: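 Human PKK inhibition measured in 100 mM Tris, 150 mM NaCl, pH 7.8, 0.1% BSA, 0.05% Tween20, 1% DMSO. Endpoint format: reaction stopped with PPACK II at 1 μM final, fluorescence read at 355 nm excitation/460 nm emission.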

[1] = biological target: T2, PKK in kaolin activated human platelet poor plasma (Homo sapiens, UniProt P03952); experiment: Inhibition of PKK in kaolin activated human PPP; assay type: biochemical; details: 25-750 μg/mL kaolin, global fit, text b200 calls the values IC90;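 further: readout is the rate of fluorogenic substrate cleavage in rfu per min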
T2 construct: Platelet poor plasma (PPP) obtained from human wholeblood; from tissue
T2 sequence (P03952 391-638 limits assumed): as above
T2 sequence (P03952 20-390 limits assumed): as the sequence (P03952 20-390 limits assumed) above
Procedure: Platelet poor plasma (PPP) obtained from human wholeblood, anticoagulated with Na-Citrate, is incubated with various concentrations of the test compound together with either 25, 75, 250, or 750 μg/mL kaolin in assay buffer for 20 min at 37° C. such that for each kaolin dose used a concentration response is obtained for the test compound.

Row | pIC50 (Human PKK) | pIC50 [1] | Compound
1 | 9.22 | 5.93 | CCc1nc(N2C[C@@H]3[C@H](C)[C@@H]3C2)ccc1Cn1cnc(C(=O)N[C@@H]2CCc3c2ncn3C)c1 [Example 143, 1-({2-Ethyl-6-[(1R,5S,6R)-6-methyl-3-azabicyclo[3.1.0]hexan-3-yl]pyridin-3-yl}methyl)-N-[(4R)-1-methyl-1H,4H,5H,6H-cyclopenta-[d]imidazol-4-yl]-1H-imidazole-4-carboxamide]
2 | 8.34 | 5.68 | CCc1nc(N2CC3CC3C2)ccc1Cc1ncc(C(=O)N[C@@H]2CCc3c2ncn3C)o1 (stereo partly drawn) [Example 158, 2-[(6-{3-Azabicyclo[3.1.0]hexan-3-yl}-2-ethylpyridin-3-yl)methyl]-N-[(4R)-1-methyl-1H,4H,5H,6H-cyclopenta[d]imidazol-4-yl]-1,3-oxazole-5-carboxamide]
3 | 8.48 | 6.75 | Cn1cnc2c1CC[C@H]2NC(=O)c1cn(Cc2ccc(N3CC4(CC4)C3)nc2CO)cn1 [Example 87, 1-[(6-{5-Azaspiro[2.3]hexan-5-yl}-2-(hydroxymethyl)-pyridin-3-yl)methyl]-N-[(4R)-1-methyl-1H,4H,5H,6H-cyclopenta[d]imidazol-4-yl]-1H-imidazole-4-carboxamide]
4 | 9.22 | 6.71 | Cn1cnc2c1CC[C@H]2NC(=O)c1cnn(Cc2ccc(N3CC4CC4C3)nc2C2(C#N)CC2)c1 (stereo partly drawn) [Example 42, 1-[(6-{3-Azabicyclo[3.1.0]hexan-3-yl}-2-(1-cyanocyclopro-pyl)-pyridin-3-yl)methyl]-N-[(4R)-1-methyl-1H,4H,5H,6H-cyclopenta[d]imidazol-4-yl]-1H-pyrazole-4-carboxamide]
5 | 8.68 | 5.84 | CCOc1nc(N2CC3C(C2)C3(F)F)ccc1Cn1cnc(C(=O)N[C@@H]2CCc3c2ncn3C)c1 (stereo partly drawn) [Example 102, 1-[(6-{6,6-Difluoro-3-azabicyclo[3.1.0]hexan-3-yl}-2-ethoxypyridin-3-yl)methyl]-N-[(4R)-1-methyl-1H,4H,5H,6H-cyclopenta[d]imidazol-4-yl]-1H-imidazole-4-carboxamide]
6 | 7.87 | 5.64 | CCc1nc(N2CC3C(C2)C3(F)F)ccc1Cc1ccc(C(=O)N[C@@H]2CCc3c2ncn3C)s1 (stereo partly drawn) [Example 184, 5-[(6-{6,6-Difluoro-3-azabicyclo[3.1.0]hexan-3-yl}-2-ethylpyridin-3-yl)methyl]-N-[(4R)-1-methyl-1H,4H,5H,6H-cyclopenta[d]imidazol-4-yl]thiophene-2-carboxamide]
7 | 8.68 | 6.36 | Cn1cnc2c1CC[C@H]2NC(=O)c1cn(Cc2ccc(N3CC4CC4C3)nc2CO)nn1 (stereo partly drawn) [Example 91, 1-[(6-{3-Azabicyclo[3.1.0]hexan-3-yl}-2-(hydroxymethyl)-pyridin-3-yl)methyl]-N-[(4R)-1-methyl-1H,4H,5H,6H-cyclo-penta[d]imidazol-4-yl]-1H-1,2,3-triazole-4-carboxamide]
8 | 8.77 | 6.23 | C[C@H](O)c1nc(N2CC3CC3C2)ccc1Cn1cc(C(=O)N[C@@H]2CCc3c2ncn3C)cn1 (stereo partly drawn) [Example 83, 1-[(6-{3-Azabicyclo[3.1.0]hexan-3-yl}-2-[(1S)-1-hydroxy-ethyl]pyridin-3-yl)methyl]-N-[(4R)-1-methyl-1H,4H,5H,6H-cyclopenta[d]imidazol-4-yl]-1H-pyrazole-4-carboxamide]
9 | 9.05 | 6.48 | Cn1cnc2c1CC[C@H]2NC(=O)c1cn(Cc2ccc(N3CC4CC4C3)nc2C(F)F)nn1 (stereo partly drawn) [Example 30, 1-[(6-{3-Azabicyclo[3.1.0]hexan-3-yl}-2-(difluoromethyl)-pyridin-3-yl)methyl]-N-[(4R)-1-methyl-1H,4H,5H,6H-cyclo-penta[d]imidazol-4-yl]-1H-1,2,3-triazole-4-carboxamide]
10 | 8.74 | 6.35 | Cn1cnc2c1CC[C@H]2NC(=O)c1cnn(Cc2ccc(N3CC4C(C3)C4(F)F)nc2Cl)c1 (stereo partly drawn) [Example 44, 1-[(2-Chloro-6-{6,6-difluoro-3-azabicyclo-[3.1.0]hexan-3-yl}pyridin-3-yl)methyl]-N-[(4R)-1-methyl-1H,4H,5H,6H-cyclopenta[d]imidazol-4-yl]-1H-pyrazole-4-carboxamide]
11 | 8.31 | 6.46 | Cn1cnc2c1CC[C@H]2NC(=O)c1cn(Cc2ccc(N3CC4(CC4)C3)nc2)nn1 [Example 26, 1-[(6-{5-Azaspiro[2.3]hexan-5-yl}pyridin-3-yl)-methyl]-N-[(4R)-1-methyl-1H,4H,5H,6H-cyclopenta[d]imidazol-4-yl]-1H-1,2,3-triazole-4-carboxamide]
12 | 9.15 | 6.42 | Cn1cnc2c1CC[C@H]2NC(=O)c1cn(Cc2ccc(N3CC4CC4C3)nc2Br)cn1 (stereo partly drawn) [Example 39, 1-[(6-{3-Azabicyclo[3.1.0]hexan-3-yl}-2-bromopyridin-3-yl)methyl]-N-[(4R)-1-methyl-1H,4H,5H,6H-cyclopenta[d]imidazol-4-yl]-1H-imidazole-4-carboxamide]
13 | 8.85 | 6.96 | Cn1cnc2c1CC[C@H]2NC(=O)c1cnn(Cc2ccc(N3CC4C(C3)C4(F)F)nc2CO)c1 (stereo partly drawn) [Example 93, 1-[(6-{6,6-Difluoro-3-azabicyclo[3.1.0]hexan-3-yl}-2-(hydroxymethyl)pyridin-3-yl)methyl]-N-[(4R)-1-methyl-1H,4H,5H,6H-cyclopenta-[d]imidazol-4-yl]-1H-pyrazole-4-carboxamide]
14 | 9.22 | 6.74 | Cn1cnc2c1CC[C@H]2NC(=O)c1cn(Cc2ccc(N3CC4C(C3)C4(F)F)nc2Br)cn1 (stereo partly drawn) [Example 28, 1-[(2-Bromo-6-{6,6-difluoro-3-azabicyclo-[3.1.0]hexan-3-yl}pyridin-3-yl)methyl]-N-[(4R)-1-methyl-1H,4H,5H,6H-cyclopenta[d]imidazol-4-yl]-1H-imidazole-4-carboxamide]
15 | 8.60 | 6.58 | Cn1cnc2c1CC[C@H]2NC(=O)c1cn(Cc2ccc(N3CC4C(C3)C4(F)F)nc2)nn1 (stereo partly drawn) [Example 33, 1-[(6-{6,6-Difluoro-3-azabicyclo[3.1.0]hexan-3-yl}pyridin-3-yl)methyl]-N-[(4R)-1-methyl-1H,4H,5H,6H-cyclo-penta[d]imidazol-4-yl]-1H-1,2,3-triazole-4-carboxamide]
16 | 8.55 | 6.51 | COCc1nc(N2CC3CC3C2)ccc1Cn1cc(C(=O)N[C@@H]2CCc3c2ncn3C)nn1 (stereo partly drawn) [Example 92, 1-[(6-{3-Azabicyclo[3.1.0]hexan-3-yl}-2-(methoxymethyl)-pyridin-3-yl)methyl]-N-[(4R)-1-methyl-1H,4H,5H,6H-cyclo-penta[d]imidazol-4-yl]-1H-1,2,3-triazole-4-carboxamide]
17 | 9.15 | 6.68 | Cn1cnc2c1CC[C@H]2NC(=O)c1cnn(Cc2ccc(N3CC4CC4C3)nc2C(C)(C)O)c1 (stereo partly drawn) [Example 84, 1-[(6-{3-Azabicyclo[3.1.0]hexan-3-yl}-2-(2-hydroxypropan-2-yl)pyridin-3-yl)methyl]-N-[(4R)-1-methyl-1H,4H,5H,6H-cyclopenta[d]imidazol-4-yl]-1H-pyrazole-4-carboxamide]
18 | 8.89 | 6.93 | Cn1cnc2c1CC[C@H]2NC(=O)c1cnn(Cc2ccc(N3CC4CC4C3)nc2CC#N)c1 (stereo partly drawn) [Example 81, 1-[(6-{3-Azabicyclo[3.1.0]hexan-3-yl}-2-(cyanomethyl)-pyridin-3-yl)methyl]-N-[(4R)-1-methyl-1H,4H,5H,6H-cyclopenta[d]imidazol-4-yl]-1H-pyrazole-4-carboxamide]
19 | 8.89 | 6.54 | Cn1cnc2c1CC[C@H]2NC(=O)c1cn(Cc2ccc(N3CC4C(C3)C4(F)F)nc2Cl)nn1 (stereo partly drawn) [Example 1, 1-[(2-Chloro-6-{6,6-difluoro-3-azabicyclo[3.1.0]hexan-3-yl}pyridin-3-yl)methyl]-N-[(4R)-1-methyl-1H,4H,5H,6H-cyclopenta[d]imidazol-4-yl]-1H-1,2,3-triazole-4-carboxamide]
20 | 8.43 | 5.66 | Cn1cnc2c1CC[C@H]2NC(=O)c1cnn(Cc2cnc(N3CC4CC4C3)cc2Cl)c1 (stereo partly drawn) [Example 99, 1-[(6-{3-Azabicyclo[3.1.0]hexan-3-yl}-4-chloropyridin-3-yl)methyl]-N-[(4R)-1-methyl-1H,4H,5H,6H-cyclopenta[d]imidazol-4-yl]-1H-pyrazole-4-carboxamide]
21 | 9.15 | 6.82 | Cn1cnc2c1CC[C@H]2NC(=O)c1cn(Cc2ccc(N3CC4C(C3)C4(F)F)nc2C(F)F)cn1 (stereo partly drawn) [Example 45, 1-[(6-{6,6-Difluoro-3-azabicyclo[3.1.0]hexan-3-yl}-2-(difluoromethyl)pyridin-3-yl)methyl]-N-[(4R)-1-methyl-1H,4H,5H,6H-cyclopenta-[d]imidazol-4-yl]-1H-imidazole-4-carboxamide]
22 | 9.10 | 6.23 | Cn1cnc2c1CC[C@H]2NC(=O)c1cn(Cc2ccc(N3CC4C(C3)C4(F)F)cc2Cl)cn1 (stereo partly drawn) [Example 211, 1-[(2-chloro-4-{6,6-difluoro-3-azabicyclo-[3.1.0]hexan-3-yl}phenyl)methyl]-N-[(4R)-1-methyl-1H,4H,5H,6H-cyclopenta[d]imidazol-4-yl]-1H-imidazole-4-carboxamide]
23 | 9.15 | 6.27 | Cc1c(Cn2cc(C(=O)N[C@@H]3CCc4c3ncn4C)cn2)cnc(N2CC3C(C2)C3(F)F)c1C#N (stereo partly drawn) [Example 103, 1-[(5-Cyano-6-{6,6-difluoro-3-azabicyclo[3.1.0]-hexan-3-yl}-4-methylpyridin-3-yl)methyl]-N-[(4R)-1-methyl-1H,4H,5H,6H-cyclopenta-[d]imidazol-4-yl]-1H-pyrazole-4-carboxamide]
